How the values were obtained:
[1] = tested on: recombinant yeast W801M strain; assay: Simultaneous (glucose/xylose) fermentation test in medium supplemented with amino acid, primary screening; format: cell-based, Saccharomyces cerevisiae; settings: hour 8 after start, amino acid amount per Table 3; for ΔXylose 0-8 h (decreased amount of xylose): YNGXAc+U medium (10 g/l xylose, 10 g/l glucose), 30° C., initial OD600=10, n=2; for Control ratio % (ΔXylose 0-8 h relative to no-addition control): YNGXAc+U medium, n=2
Protocol: (§1) The W801M strain prepared as described above was cultured in 5 ml of an YNG+U (6.7 g/l Yeast Nitrogen Base without amino acids, 20 g/l glucose, 20 mg/l uracil) liquid medium prepared in a test tube at 30° C. and 80 rpm for 24 hours, thereby preparing a pre-pre-culture solution. Next, the pre-pre-culture solution (5 ml) was added to new YNX+U liquid medium (250 ml) prepared in a baffled Erlenmeyer flask, followed by pre-culture at 30° C. and 100 rpm. After 48 hours of culture, the culture solution was subjected to 5 minutes of centrifugation at 1000×g at room temperature, thereby removing the supernatant.
(§2) To prevent the introduction of the substrate into the pre-culture solution, the thus collected microbial pellet was suspended in sterile water and then subjected to centrifugation at 1000×g for 5 minutes, thereby collecting microorganisms. Washing was performed twice. After washing, microorganisms were suspended in sterile water, so that a microbial solution was prepared. A sodium acetate buffer was added to the fermentation medium so as to suppress a pH decrease in the medium associated with fermentation. The microbial solution was added to an YNGXAc+U medium (6.7 g/l Yeast Nitrogen Base without amino acids, 10 g/l D-Xylose, 10 g/l Glucose, 25 mM sodium acetate, 20 mg/l uracil, pH 5.0) so that the initial microbial concentration was OD600=10. One type of amino acid was added to the YNGXAc+U medium to result in a predetermined concentration, and then the medium was used. Amino acid was dissolved in water to a concentration 10 times greater than the final concentration. Then the solution was adjusted to pH 5.0, diluted, and then used. The fermentation test was conducted as follows. Five (5) ml of the culture solution was added to a 15-ml plastic tube with a screw cap, the tube was sealed with the cap, and then the tube was shaken at 30° C. (100 rpm). Sampling from the culture solution was performed over time and thus substrates (xylose and glucose) and the product (ethanol) were analyzed via liquid chromatography. Liquid chromatography was performed using a Shim-pack SPR-Pb column (Shimadzu Corporation) at 80° C. An RID-10A refractive index detector (Shimadzu Corporation) was used. Water was used for a mobile phase and sent at a flow rate of 0.8 ml/min.
A fermentation test was conducted (n=2) using as a control an YNGXAc+U medium to which nothing had been added, an YNGXAc+U medium supplemented with casamino acid (CAA, 20 g/L) (that is, an amino acid mixture obtained via hydrolysis of casein) and YNGXAc+U medium supplemented with 18 types of amino acids considered to be contained in casamino acid (20 g/L) or 2 types of amino acid (glutamine and asparagine) (5 g/L) considered not to be contained in casamino acid. The results of the measurement of the decreased amounts of xylose at hour 8 after the start of the fermentation test are shown in Table 3.

[2] = tested on: recombinant yeast W801M strain; assay: Simultaneous (glucose/xylose) fermentation test in medium supplemented with amino acid, secondary test; format: cell-based, Saccharomyces cerevisiae; settings: n=4
Protocol: as §1, §2
In addition, 8 hours later, glucose had been completely consumed and thus was not detected in any samples.
Also, 2 hours later, glucose remained in all samples.
Also, 22 hours later, both glucose and xylose had been completely consumed and thus was not detected. It was understood from the results that the microbial concentrations had increased from the initial microbial concentration of OD600=10 to around OD600=15 at hour 22. However, the microbial concentrations at hour 22 when the amino acids were added were equivalent to or lower than that of the control.

Row | SMILES | ΔXylose 0-8 h (decreased amount of xylose) [1] [g/L] | Control ratio % (ΔXylose 0-8 h relative to no-addition control) [1] [%] | xylose consumption rate compared with the control (decreased amount of xylose at hour 8, FIG. 7) ([2]; amino acid added at 0.3 g/L) | xylose consumption rate compared with the control (decreased amount of xylose at hour 8, FIG. 7) ([2]; amino acid added at 1 g/L)
1 | CC[C@H](C)[C@H](N)C(=O)O [Ile] | 2.09 | 79 | – | –
2 | CSCC[C@H](N)C(=O)O [Met] | 2.67 | 100 | – | –
3 | N[C@@H](Cc1c[nH]cn1)C(=O)O [His, histidine] | 3.26 | 122 | Significant effects of improvement | –
4 | N[C@@H](Cc1c[nH]c2ccccc12)C(=O)O [Trp] | 3.07 | 115 | – | –
5 | N[C@@H](CS)C(=O)O [Cys] | 2.81 | 106 | – | –
6 | N[C@@H](Cc1ccccc1)C(=O)O [Phe] | 2.79 | 105 | – | –
7 | N[C@@H](CO)C(=O)O [Ser, serine] | 3.42 | 128 | Significant effects of improvement | Significant effects of improvement
8 | C[C@H](N)C(=O)O [Ala, alanine] | 2.95 | 111 | – | –
9 | CC(C)[C@H](N)C(=O)O [Val, valine] | 2.67 | 100 | – | –
10 | N[C@@H](CC(=O)O)C(=O)O [Asp, aspartic acid] | 2.46 | 92 | – | –
11 | NC(=O)CC[C@H](N)C(=O)O [Gln, glutamine] | 3.05 | 115 | – | –
12 | N[C@@H](CCC(=O)O)C(=O)O [Glu, glutamic acid] | 2.25 | 85 | – | –
13 | N=C(N)NCCC[C@H](N)C(=O)O [Arg, arginine] | 2.91 | 109 | – | –
14 | N[C@@H](Cc1ccc(O)cc1)C(=O)O [Tyr, tyrosine] | 3.62 | 136 | – | Significant effects of improvement
15 | CC(C)C[C@H](N)C(=O)O [Leu, leucine] | 1.12 | 42 | – | –
16 | C[C@@H](O)[C@H](N)C(=O)O [Thr, threonine] | 3.29 | 124 | Significant effects of improvement | Significant effects of improvement
17 | NC(=O)C[C@H](N)C(=O)O [Asn, asparagine] | 3.60 | 135 | Significant effects of improvement | Significant effects of improvement
18 | NCC(=O)O [Gly] | 3.03 | 114 | – | –
19 | NCCCC[C@H](N)C(=O)O [Lys] | 3.08 | 116 | – | –
20 | O=C(O)[C@@H]1CCCN1 [Pro] | 2.97 | 112 | – | –
